{"source": "patent US20250002487A1", "about": "“HETEROCYCLIC COMPOUNDS AND USES THEREOF” (Ventus Therapeutics U.S., Inc., priority 2021, published 2025)", "data": [{"target": "human-cGAS (h-cGAS) (Homo sapiens, UniProt Q8N884)", "sequence (Q8N884 whole entry)": "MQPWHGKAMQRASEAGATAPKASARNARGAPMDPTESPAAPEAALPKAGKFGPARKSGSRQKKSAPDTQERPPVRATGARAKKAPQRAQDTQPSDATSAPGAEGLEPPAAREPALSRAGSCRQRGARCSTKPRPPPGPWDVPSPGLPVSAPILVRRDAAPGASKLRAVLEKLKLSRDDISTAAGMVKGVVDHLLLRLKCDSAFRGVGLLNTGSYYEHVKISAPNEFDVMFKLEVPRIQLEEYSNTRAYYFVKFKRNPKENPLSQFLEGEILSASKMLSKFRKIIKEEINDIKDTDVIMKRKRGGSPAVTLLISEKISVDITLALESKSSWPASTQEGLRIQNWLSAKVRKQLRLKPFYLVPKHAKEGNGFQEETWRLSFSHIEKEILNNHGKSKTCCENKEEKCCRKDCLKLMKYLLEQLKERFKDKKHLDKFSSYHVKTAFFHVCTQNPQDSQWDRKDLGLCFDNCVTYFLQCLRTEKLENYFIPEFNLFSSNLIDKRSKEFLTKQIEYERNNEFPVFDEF", "test": "hcGAS Kinase-Glo Assay", "type": "biochemical", "conditions": "40 nM h-cGAS, 100 μM ATP, 100 μM GTP, 25 nM dsDNA, 3 h incubation, read-out: hcGAS potency IC50", "procedure,_shortened": "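IC50 values come from a luminescence-based Kinase-Glo measurement on human cGAS. Conditions follow the Lama et al. 2019 method with minor modifications.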", "units": {"IC50": "nM"}, "values": [{"molecule": "CSc1nnc(NC(=O)c2nc(Nc3ccccc3)no2)s1", "note": "[Compound 265, N-(5-(methylthio)-1,3,4-thiadiazol-2-yl)-3-(phenylamino)-1,2,4-oxadiazole-5-carboxamide]", "IC50": "500 to 1000"}, {"molecule": "CSc1nnc(NC(=O)c2ccnc(-c3ccccc3)c2)s1", "note": "[Compound 266, N-(5-(methylthio)-1,3,4-thiadiazol-2-yl)-2-phenylisonicotinamide]", "IC50": "≥ 1000"}, {"molecule": "CSc1nnc(NC(=O)c2cc(-c3cccc4c(C)ccnc34)cc(=O)o2)s1", "note": "[Compound 267, 4-(4-methylquinolin-8-yl)-N-(5-(methylthio)-1,3,4-thiadiazol-2-yl)-2-oxo-2H-pyran-6-carboxamide]", "IC50": "100 to 500"}, {"molecule": "CSc1nnc(NC(=O)c2cc(Nc3ccccc3)cc(=O)o2)s1", "note": "[Compound 268, N-(5-(methylthio)-1,3,4-thiadiazol-2-yl)-2-oxo-4-(phenylamino)-2H-pyran-6-carboxamide]", "IC50": "100 to 500"}, {"molecule": "CSc1nnc(NC(=O)c2cc(-c3cccc4c3cnn4C)cc(=O)o2)s1", "note": "[Compound 269, 4-(1-methyl-1H-indazol-4-yl)-N-(5-(methylthio)-1,3,4-thiadiazol-2-yl)-2-oxo-2H-pyran-6-carboxamide]", "IC50": "100 to 500"}, {"molecule": "CSc1nnc(NC(=O)c2cc(-c3ccc4cccnc4c3)cc(=O)o2)s1", "note": "[Compound 270, N-(5-(methylthio)-1,3,4-thiadiazol-2-yl)-2-oxo-4-(quinolin-7-yl)-2H-pyran-6-carboxamide]", "IC50": "100 to 500"}, {"molecule": "CSc1nnc(NC(=O)c2onc3c2ccc2ncccc23)s1", "note": "[Compound 271, N-(5-(methylthio)-1,3,4-thiadiazol-2-yl)isoxazolo[3,4-f]quinoline-3-carboxamide]", "IC50": "500 to 1000"}, {"molecule": "CSc1nnc(NC(=O)c2cc(-c3ccc(=O)[nH]c3)cc(=O)o2)s1", "note": "[Compound 272, N-(5-(methylthio)-1,3,4-thiadiazol-2-yl)-2-oxo-4-(6-oxo-1,6-dihydropyridin-3-yl)-2H-pyran-6-carboxamide]", "IC50": "500 to 1000"}, {"molecule": "CSc1nnc(NC(=O)c2onc3c2ccc2cnccc23)s1", "note": "[Compound 273, N-(5-(methylthio)-1,3,4-thiadiazol-2-yl)isoxazolo[3,4-f]isoquinoline-3-carboxamide]", "IC50": "≥ 1000"}, {"molecule": "CSc1nnc(NC(=O)c2cc(-c3cccc4c3ncn4C)cc(=O)o2)s1", "note": "[Compound 274, 4-(1-methyl-1H-benzo[d]imidazol-4-yl)-N-(5-(methylthio)-1,3,4-thiadiazol-2-yl)-2-oxo-2H-pyran-6-carboxamide]", "IC50": "100 to 500"}, {"molecule": "CSc1nnc(NC(=O)c2cc(-c3cccc4c3OCCN4)cc(=O)o2)s1", "note": "[Compound 275, 4-(3,4-dihydro-2H-benzo[b][1,4]oxazin-8-yl)-N-(5-(methylthio)-1,3,4-thiadiazol-2-yl)-2-oxo-2H-pyran-6-carboxamide]", "IC50": "100 to 500"}, {"molecule": "CSc1nnc(NC(=O)c2cc(-c3cccc(=O)[nH]3)cc(=O)o2)s1", "note": "[Compound 276, N-(5-(methylthio)-1,3,4-thiadiazol-2-yl)-2-oxo-4-(6-oxo-1,6-dihydropyridin-2-yl)-2H-pyran-6-carboxamide]", "IC50": "100 to 500"}, {"molecule": "CSc1nnc(NC(=O)c2cc(-c3cccc4ccncc34)cc(=O)o2)s1", "note": "[Compound 277, 4-(isoquinolin-8-yl)-N-(5-(methylthio)-1,3,4-thiadiazol-2-yl)-2-oxo-2H-pyran-6-carboxamide]", "IC50": "500 to 1000"}, {"molecule": "COC(=O)c1ccc2c(C(=O)Nc3nnc(SC)s3)onc2c1", "note": "[Compound 278, methyl 3-((5-(methylthio)-1,3,4-thiadiazol-2-yl)carbamoyl)benzo[c]isoxazole-6-carboxylate]", "IC50": "500 to 1000"}, {"molecule": "CSc1nnc(NC(=O)c2onc3c2ccc2ccncc23)s1", "note": "[Compound 279, N-(5-(methylthio)-1,3,4-thiadiazol-2-yl)isoxazolo[4,3-h]isoquinoline-3-carboxamide]", "IC50": "500 to 1000"}, {"molecule": "CNc1nnc(NC(=O)c2onc3c2ccc2cccnc23)s1", "note": "[Compound 280, N-(5-(methylamino)-1,3,4-thiadiazol-2-yl)isoxazolo[4,3-h]quinoline-3-carboxamide]", "IC50": "≥ 1000"}]}]}
